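These data come from cells grown in 96-well plates and exposed to compound for 48 hours at five concentrations. GI50 marks 50% less growth. The concentration for full growth arrest is given as TGI.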 A value given as a limit tells only on which side of the number the result lay.

The first experiment concerns RXF 393 renal. Briefly: NCI tumour cell line growth inhibition, 48 h.
As to `O=C1/C(=C/c2ccccc2)N=C2Sc3c(nc[nH]c3=O)N12`, the TGI was above 100 µM.

A further experiment concerns MOLT-4 leukemia. Kind of experiment: NCI tumour cell line growth inhibition, 48 h.
With `CCCCCCc1cc2cc(-c3csc(CC#N)n3)c(=O)oc2cc1O`, the TGI was above 100 µM.
The same measure, in the same setting: in the case of `Nn1c(-c2ccccc2)nn(C(=O)c2ccccc2)c1=O` it was above 100 µM; in that of `COC(=O)C([C@H](NC1(c2ccccc2)c2ccccc2-c2ccccc21)C(=O)OC)N(NC(=O)OCc1ccccc1)C(=O)OCc1ccccc1` (mixture of isomers), above 100 µM.
Take `O=C(NC(=O)c1ccccc1[N+](=O)[O-])Nc1ccc(Oc2ncc(Br)cn2)c(Cl)c1`: the GI50 was below 0.0222 µM.
Compound `CC[C@@H]1CC[C@@H]2[C@H](CC[C@]3(C)[C@@H](OC(C)=O)CC[C@@H]23)[C@H]1COC(C)=O` displayed a TGI of 37 µM.
`CN1CCc2cc(N)cc3c2C1Cc1ccc(O)c(O)c1-3` (stereo not drawn) came in with a TGI of 39.9 µM.
For the compound `CC(C)=CCc1c2c(c3occ(-c4ccc(O)cc4)c(=O)c3c1O)CC(C(C)(C)O)O2` (stereo not drawn), the TGI stood at 31.8 µM.
On the same count and under the same terms, next, `CC1(C)N=[N+]([O-])C1(C)C`: above 100 µM; `COc1ccc(C2CC(c3c(O)ccc4ccccc34)=NN2C(C)=O)cc1OC` (stereo not drawn): 53.6 µM.
Consider `COc1cc2nc3n(c(=O)c2cc1OC)-c1ccc([N+](=O)[O-])cc1C3=O`, for which the TGI was above 100 µM.
Still for that read-out and setting: in the case of `NC(N)=N/N=C/c1c(-c2ccc(N)cc2)nc2sccn12` it was 73.9 µM.
For `COC(=O)c1c(C)cccc1C1CN=NC12Cc1ccc(C)cc1C2=O` (stereo not drawn), the TGI amounted to 84.7 µM.
The same measure, in the same setting: in the case of `COC(=O)C1SC(SC)=NC12c1ccccc1Nc1ccccc12` (stereo not drawn) it was 71.1 µM.
Still for that read-out and setting: in the case of `c1ccc(N=c2sc3ccccc3nc2Nc2ccccc2)cc1` it was above 100 µM; in that of `C=CC1(C)CCC2C(=CCC3C2(C)CC(O)C(O)C3(C)COC2OC(C(=O)O)C(O)C(O)C2O)C1` (stereo not drawn) (tested in a mixture with another compound), above 100 µM; in that of `Cc1ccccc1C(=O)N1CCc2c([nH]c3ccccc23)C1`, 80 µM.
`O=C1CC(NC(=O)C(F)(F)F)c2c(Br)sc(N3CCNCC3)c21` (stereo not drawn) came in with a TGI above 100 µM.
As to `Cc1ccc([N+](=O)[O-])cc1NC1=NCCO1`, the TGI was above 100 µM.
`N#CCCC1C(C#N)C2(Cl)CC1(Cl)C(Cl)=C2Cl` (stereo not drawn): the TGI was above 10 µM.
Consider `CC(C)(C)N1CSC(=S)N(Cc2ccco2)C1`, for which the TGI turned out to be 5.72 µM.
Same read-out and setting: in the case of `CN(C)C(=O)O/N=C1/C(c2c(O)[nH]c3ccccc23)=Nc2ccccc21` it was 41.5 µM.
With `COc1cc(C2c3cc4c(cc3OC(N3CCOCC3)C2C)OCO4)ccc1O` (stereo not drawn), the TGI was determined as 60.7 µM.
Turning to `O=C1/C(=C/c2ccccc2)N=C2Sc3c(nc[nH]c3=O)N12`, the TGI is above 100 µM.

Another experiment has as its system OVCAR-4 ovarian. Kind of experiment: NCI tumour cell line growth inhibition, 48 h.
Turning to `CCCCCCc1cc2cc(-c3csc(CC#N)n3)c(=O)oc2cc1O`, the TGI came to 12.9 µM.
Still for that read-out and setting: in the case of `Nn1c(-c2ccccc2)nn(C(=O)c2ccccc2)c1=O` it was above 100 µM; in that of `COC(=O)C([C@H](NC1(c2ccccc2)c2ccccc2-c2ccccc21)C(=O)OC)N(NC(=O)OCc1ccccc1)C(=O)OCc1ccccc1` (mixture of isomers), above 100 µM.
`O=C(NC(=O)c1ccccc1[N+](=O)[O-])Nc1ccc(Oc2ncc(Br)cn2)c(Cl)c1`: the GI50 was 7.58 µM.
As to `CC[C@@H]1CC[C@@H]2[C@H](CC[C@]3(C)[C@@H](OC(C)=O)CC[C@@H]23)[C@H]1COC(C)=O`, the TGI is 75 µM.
`CN1CCc2cc(N)cc3c2C1Cc1ccc(O)c(O)c1-3` (stereo not drawn) returned a TGI above 100 µM.
Still for that read-out and setting: next, `CC(C)=CCc1c2c(c3occ(-c4ccc(O)cc4)c(=O)c3c1O)CC(C(C)(C)O)O2` (stereo not drawn): 28.8 µM; `CC1(C)N=[N+]([O-])C1(C)C`: above 100 µM.
The same measure, in the same setting: next, `COc1ccc(C2CC(c3c(O)ccc4ccccc34)=NN2C(C)=O)cc1OC` (stereo not drawn): above 100 µM; `COc1cc2nc3n(c(=O)c2cc1OC)-c1ccc([N+](=O)[O-])cc1C3=O`: 63.9 µM.
The compound `NC(N)=N/N=C/c1c(-c2ccc(N)cc2)nc2sccn12` returned a TGI above 100 µM.
As for `COC(=O)c1c(C)cccc1C1CN=NC12Cc1ccc(C)cc1C2=O` (stereo not drawn), the TGI was above 100 µM.
Consider `COC(=O)C1SC(SC)=NC12c1ccccc1Nc1ccccc12` (stereo not drawn), for which the TGI is above 100 µM.
On the same count and under the same terms, in the case of `c1ccc(N=c2sc3ccccc3nc2Nc2ccccc2)cc1` it was above 100 µM; in that of `C=CC1(C)CCC2C(=CCC3C2(C)CC(O)C(O)C3(C)COC2OC(C(=O)O)C(O)C(O)C2O)C1` (stereo not drawn) (tested in a mixture with another compound), above 100 µM.
As for `Cc1ccccc1C(=O)N1CCc2c([nH]c3ccccc23)C1`, the TGI was found to be 74.9 µM.
Take `O=C1CC(NC(=O)C(F)(F)F)c2c(Br)sc(N3CCNCC3)c21` (stereo not drawn): the TGI is above 100 µM.
Still for that read-out and setting: in the case of `Cc1ccc([N+](=O)[O-])cc1NC1=NCCO1` it was above 100 µM; in that of `N#CCCC1C(C#N)C2(Cl)CC1(Cl)C(Cl)=C2Cl` (stereo not drawn), above 10 µM.
For the compound `CC(C)(C)N1CSC(=S)N(Cc2ccco2)C1`, the TGI was 26.7 µM.
Take `CN(C)C(=O)O/N=C1/C(c2c(O)[nH]c3ccccc23)=Nc2ccccc21`: the TGI came to 33.1 µM.
Same read-out and setting: next, `COc1cc(C2c3cc4c(cc3OC(N3CCOCC3)C2C)OCO4)ccc1O` (stereo not drawn): above 100 µM.
Turning to `O=C1/C(=C/c2ccccc2)N=C2Sc3c(nc[nH]c3=O)N12`, the TGI was above 100 µM.

The next experiment relates to SNB-19 CNS. Briefly: NCI tumour cell line growth inhibition, 48 h.
Consider `CCCCCCc1cc2cc(-c3csc(CC#N)n3)c(=O)oc2cc1O`, for which the TGI was above 100 µM.
For `Nn1c(-c2ccccc2)nn(C(=O)c2ccccc2)c1=O`, the TGI was above 100 µM.
Compound `COC(=O)C([C@H](NC1(c2ccccc2)c2ccccc2-c2ccccc21)C(=O)OC)N(NC(=O)OCc1ccccc1)C(=O)OCc1ccccc1` (mixture of isomers) registered a TGI above 100 µM.
As to `O=C(NC(=O)c1ccccc1[N+](=O)[O-])Nc1ccc(Oc2ncc(Br)cn2)c(Cl)c1`, the GI50 was 0.0693 µM.
The compound `CC[C@@H]1CC[C@@H]2[C@H](CC[C@]3(C)[C@@H](OC(C)=O)CC[C@@H]23)[C@H]1COC(C)=O` returned a TGI above 100 µM.
For the compound `CN1CCc2cc(N)cc3c2C1Cc1ccc(O)c(O)c1-3` (stereo not drawn), the TGI was above 100 µM.
`CC(C)=CCc1c2c(c3occ(-c4ccc(O)cc4)c(=O)c3c1O)CC(C(C)(C)O)O2` (stereo not drawn) had a TGI of 31.3 µM.
For the compound `CC1(C)N=[N+]([O-])C1(C)C`, the TGI was above 100 µM.
In turn, `COc1cc2nc3n(c(=O)c2cc1OC)-c1ccc([N+](=O)[O-])cc1C3=O` yielded a TGI above 100 µM.
For `NC(N)=N/N=C/c1c(-c2ccc(N)cc2)nc2sccn12`, the TGI is 69.1 µM.
On to `COC(=O)c1c(C)cccc1C1CN=NC12Cc1ccc(C)cc1C2=O` (stereo not drawn), for which the TGI was above 100 µM.
Still for that read-out and setting: next, `COC(=O)C1SC(SC)=NC12c1ccccc1Nc1ccccc12` (stereo not drawn): above 100 µM; `c1ccc(N=c2sc3ccccc3nc2Nc2ccccc2)cc1`: above 100 µM; `C=CC1(C)CCC2C(=CCC3C2(C)CC(O)C(O)C3(C)COC2OC(C(=O)O)C(O)C(O)C2O)C1` (stereo not drawn) (tested in a mixture with another compound): above 100 µM.
Consider `Cc1ccccc1C(=O)N1CCc2c([nH]c3ccccc23)C1`, for which the TGI was above 100 µM.
In turn, `O=C1CC(NC(=O)C(F)(F)F)c2c(Br)sc(N3CCNCC3)c21` (stereo not drawn) returned a TGI above 100 µM.
Turning to `Cc1ccc([N+](=O)[O-])cc1NC1=NCCO1`, the TGI is above 100 µM.
`N#CCCC1C(C#N)C2(Cl)CC1(Cl)C(Cl)=C2Cl` (stereo not drawn) displayed a TGI above 10 µM.
With `CC(C)(C)N1CSC(=S)N(Cc2ccco2)C1`, the TGI amounted to 14.5 µM.
`CN(C)C(=O)O/N=C1/C(c2c(O)[nH]c3ccccc23)=Nc2ccccc21` returned a TGI of 39.1 µM.
Compound `COc1cc(C2c3cc4c(cc3OC(N3CCOCC3)C2C)OCO4)ccc1O` (stereo not drawn) displayed a TGI above 100 µM.

The values above are taken from PubChem BioAssay (NCI).
